Data as given in ChEMBL document CHEMBL3994622, “Design and synthesis of new RAF kinase-inhibiting antiproliferative quinoline derivatives. Part 2: Diarylurea derivatives” (Eur J Med Chem, 2017).

Tests used:
Format in all cases: functional
OVCAR-5 = assay: Growth inhibition of human OVCAR5 cells assessed as cell growth at 10 uM incubated for 48 hrs by sulforhodamine B assay relative to control; settings: OVCAR-5, 48 h, read-out: Activity
A498 = assay: Growth inhibition of human A498 cells assessed as cell growth at 10 uM incubated for 48 hrs by sulforhodamine B assay relative to control; settings: A498, 48 h, read-out: Activity
SK-MEL-28 = assay: Growth inhibition of human SK-MEL-28 cells assessed as cell growth at 10 uM incubated for 48 hrs by sulforhodamine B assay relative to control; settings: SK-MEL-28, 48 h, read-out: Activity
IGROV-1 = assay: Growth inhibition of human IGROV1 cells assessed as cell growth at 10 uM incubated for 48 hrs by sulforhodamine B assay relative to control; settings: IGROV-1, 48 h, read-out: Activity
M14 = assay: Growth inhibition of human M14 cells assessed as cell growth at 10 uM incubated for 48 hrs by sulforhodamine B assay relative to control; settings: M14, 48 h, read-out: Activity
COLO 205 = assay: Growth inhibition of human COLO205 cells assessed as cell growth at 10 uM incubated for 48 hrs by sulforhodamine B assay relative to control; settings: COLO 205, 48 h, read-out: Activity
SF-268 = assay: Growth inhibition of human SF268 cells assessed as cell growth at 10 uM incubated for 48 hrs by sulforhodamine B assay relative to control; settings: SF-268, 48 h, read-out: Activity
NCI/ADR-RES = assay: Growth inhibition of human NCI/ADR-RES cells assessed as cell growth at 10 uM incubated for 48 hrs by sulforhodamine B assay relative to control; settings: read-out: Activity
OVCAR-8 = assay: Growth inhibition of human OVCAR8 cells assessed as cell growth at 10 uM incubated for 48 hrs by sulforhodamine B assay relative to control; settings: OVCAR-8, 48 h, read-out: Activity
MDA-MB-435 = assay: Growth inhibition of human MDA-MB-435 cells assessed as cell growth at 10 uM incubated for 48 hrs by sulforhodamine B assay relative to control; settings: MDA-MB-435, 48 h, read-out: Activity
HT-29 = assay: Growth inhibition of human HT-29 cells assessed as cell growth at 10 uM incubated for 48 hrs by sulforhodamine B assay relative to control; settings: HT-29, 48 h, read-out: Activity
LOX IMVI = assay: Growth inhibition of human LOXIMVI cells assessed as cell growth at 10 uM incubated for 48 hrs by sulforhodamine B assay relative to control; settings: read-out: Activity
ACHN = assay: Growth inhibition of human ACHN cells assessed as cell growth at 10 uM incubated for 48 hrs by sulforhodamine B assay relative to control; settings: read-out: Activity
CCRF-CEM = assay: Growth inhibition of human CCRF-CEM cells assessed as cell growth at 10 uM incubated for 48 hrs by sulforhodamine B assay relative to control; settings: read-out: Activity
MOLT-4 = assay: Growth inhibition of human MOLT4 cells assessed as cell growth at 10 uM incubated for 48 hrs by sulforhodamine B assay relative to control; settings: MOLT-4, 48 h, read-out: Activity
786-0 = assay: Growth inhibition of human 786-0 cells assessed as cell growth at 10 uM incubated for 48 hrs by sulforhodamine B assay relative to control; settings: 786-0, 48 h, read-out: Activity
UACC-257 = assay: Growth inhibition of human UACC257 cells assessed as cell growth at 10 uM incubated for 48 hrs by sulforhodamine B assay relative to control; settings: UACC-257, 48 h, read-out: Activity
PC-3 = assay: Growth inhibition of human PC3 cells assessed as cell growth at 10 uM incubated for 48 hrs by sulforhodamine B assay relative to control; settings: PC-3, 48 h, read-out: Activity
MDA-MB-231 = assay: Growth inhibition of human MDA-MB-231 cells assessed as cell growth at 10 uM incubated for 48 hrs by sulforhodamine B assay relative to control; settings: MDA-MB-231, 48 h, read-out: Activity
T47D = assay: Growth inhibition of human T47D cells assessed as cell growth at 10 uM incubated for 48 hrs by sulforhodamine B assay relative to control; settings: read-out: Activity
MCF7 = assay: Growth inhibition of human MCF7 cells assessed as cell growth at 10 uM incubated for 48 hrs by sulforhodamine B assay relative to control; settings: MCF7, 48 h, read-out: Activity
SNB-19 = assay: Growth inhibition of human SNB19 cells assessed as cell growth at 10 uM incubated for 48 hrs by sulforhodamine B assay relative to control; settings: SNB-19, 48 h, read-out: Activity
HCT-15 = assay: Growth inhibition of human HCT15 cells assessed as cell growth at 10 uM incubated for 48 hrs by sulforhodamine B assay relative to control; settings: HCT-15, 48 h, read-out: Activity
SF-295 = assay: Growth inhibition of human SF295 cells assessed as cell growth at 10 uM incubated for 48 hrs by sulforhodamine B assay relative to control; settings: SF-295, 48 h, read-out: Activity
K562 = assay: Growth inhibition of human K562 cells assessed as cell growth at 10 uM incubated for 48 hrs by sulforhodamine B assay relative to control; settings: K562, 48 h, read-out: Activity
HL-60(TB) = assay: Growth inhibition of human HL-60(TB) cells assessed as cell growth at 10 uM incubated for 48 hrs by sulforhodamine B assay relative to control; settings: HL-60, 48 h, read-out: Activity
SW-620 = assay: Growth inhibition of human SW620 cells assessed as cell growth at 10 uM incubated for 48 hrs by sulforhodamine B assay relative to control; settings: SW-620, 48 h, read-out: Activity
HOP-92 = assay: Growth inhibition of human HOP92 cells assessed as cell growth at 10 uM incubated for 48 hrs by sulforhodamine B assay relative to control; settings: HOP-92, 48 h, read-out: Activity
SF-539 = assay: Growth inhibition of human SF539 cells assessed as cell growth at 10 uM incubated for 48 hrs by sulforhodamine B assay relative to control; settings: SF-539, 48 h, read-out: Activity
NCI-H522 = assay: Growth inhibition of human NCI-H522 cells assessed as cell growth at 10 uM incubated for 48 hrs by sulforhodamine B assay relative to control; settings: NCI-H522, 48 h, read-out: Activity
SNB-75 = assay: Growth inhibition of human SNB75 cells assessed as cell growth at 10 uM incubated for 48 hrs by sulforhodamine B assay relative to control; settings: SNB-75, 48 h, read-out: Activity
NCI-H23 = assay: Growth inhibition of human NCI-H23 cells assessed as cell growth at 10 uM incubated for 48 hrs by sulforhodamine B assay relative to control; settings: NCI-H23, 48 h, read-out: Activity
BT-549 = assay: Growth inhibition of human BT549 cells assessed as cell growth at 10 uM incubated for 48 hrs by sulforhodamine B assay relative to control; settings: BT-549, 48 h, read-out: Activity

Row | SMILES | growth at 10 µM (OVCAR-5) [%] | growth at 10 µM (A498) [%] | growth at 10 µM (SK-MEL-28) [%] | growth at 10 µM (IGROV-1) [%] | growth at 10 µM (M14) [%] | growth at 10 µM (COLO 205) [%] | growth at 10 µM (SF-268) [%] | growth at 10 µM (NCI/ADR-RES) [%] | growth at 10 µM (OVCAR-8) [%] | growth at 10 µM (MDA-MB-435) [%] | growth at 10 µM (HT-29) [%] | growth at 10 µM (LOX IMVI) [%] | growth at 10 µM (ACHN) [%] | growth at 10 µM (CCRF-CEM) [%] | growth at 10 µM (MOLT-4) [%] | growth at 10 µM (786-0) [%] | growth at 10 µM (UACC-257) [%] | growth at 10 µM (PC-3) [%] | growth at 10 µM (MDA-MB-231) [%] | growth at 10 µM (T47D) [%] | other results
1 | COc1cc2cc(Oc3ccc(NC(=O)Nc4ccc(Cl)c(Cl)c4)cc3)c(C)nc2cc1OC | 53 | 35.8 | 44.6 | 18.6 | 25.8 | 4.03 | 43.7 | 17.1 | 15 | 12.3 | 10.9 | 23.1 | 16.4 | 13.3 | 3.69 | 20.3 | 1.38 | 4.12 | 47.8 | 60.9 | growth at 10 µM (MCF7): 13.8%; growth at 10 µM (SNB-19): 28.6%; growth at 10 µM (HCT-15): 18.9%; growth at 10 µM (SF-295): 0.69%; growth at 10 µM (K562): 12.7%; growth at 10 µM (HL-60(TB)): 9.64%; growth at 10 µM (SW-620): 23.4%; growth at 10 µM (HOP-92): -9.31%; growth at 10 µM (SF-539): 38.5%; growth at 10 µM (NCI-H522): -13.8%; growth at 10 µM (SNB-75): 22.4%; growth at 10 µM (NCI-H23): 8.26%; growth at 10 µM (BT-549): 28.1%
2 | COc1cc2cc(Oc3ccc(NC(=O)Nc4ccc(C(F)(F)F)cc4)cc3)c(C)nc2cc1OC | 92.9 | 90.5 | 58.4 | 71.9 | 95.2 | 40.4 | 79.3 | 64.1 | 37.8 | 80.3 | 44.6 | 56.4 | 56.1 | 68.5 | 61.9 | 74.9 | 66.5 | 48.3 | 80.9 | 57.5 | growth at 10 µM (MCF7): 84.3%; growth at 10 µM (SNB-19): 93.5%; growth at 10 µM (HCT-15): 75.4%; growth at 10 µM (SF-295): 56%; growth at 10 µM (K562): 57.1%; growth at 10 µM (HL-60(TB)): 75.2%; growth at 10 µM (SW-620): 75.3%; growth at 10 µM (HOP-92): 56.3%; growth at 10 µM (SF-539): 96.9%; growth at 10 µM (NCI-H522): 63.2%; growth at 10 µM (SNB-75): 41%; growth at 10 µM (NCI-H23): 79.3%; growth at 10 µM (BT-549): 113%
3 | COc1cc2cc(Oc3ccc(NC(=O)Nc4ccc(Cl)c(C(F)(F)F)c4)cc3)c(C)nc2cc1OC | 18 | 10.4 | -35.9 | -7.69 | -73.7 | -49.5 | -10.2 | 2.01 | 7.34 | -25.7 | -24.9 | -81.3 | 13.6 | -17.6 | -27.9 | -21.1 | -12.5 | -0.61 | -50.6 | 21.4 | growth at 10 µM (MCF7): 2.59%; growth at 10 µM (SNB-19): 23.7%; growth at 10 µM (HCT-15): 1.27%; growth at 10 µM (SF-295): -70.9%; growth at 10 µM (K562): -9.54%; growth at 10 µM (HL-60(TB)): -40.6%; growth at 10 µM (SW-620): 7.51%; growth at 10 µM (HOP-92): -22.3%; growth at 10 µM (SF-539): -36.2%; growth at 10 µM (NCI-H522): -43.6%; growth at 10 µM (SNB-75): 12.4%; growth at 10 µM (NCI-H23): 3.46%; growth at 10 µM (BT-549): -38.7%
